# From publication PMC10376326, “Novel Acylselenourea Derivatives: Dual Molecules with Anticancer and Radical Scavenging Activity” (Antioxidants, 2023)
# Entries after “also recorded” stand apart in the source; their conditions may differ. Read-outs that look alike come from different tables or passages of the source.
# Key:
# Format in all cases: cell-based, human
# [1] = tested on: HTB-54 (lung) cancer cell line; test: MTT cell viability assay, HTB-54; conditions: for activity at 10 µM: read-out: Cell growth %, HTB-54, 10 µM, 48 h, MTT; for activity at 50 µM: read-out: Cell growth %, HTB-54, 50 µM, 48 h, MTT; for SI: IC50 (BEAS-2B)/IC50 (HTB-54)
# [2] = tested on: MDA-MB-231 (breast) cancer cell line; test: MTT cell viability assay, MDA-MB-231; conditions: Homo sapiens, MDA-MB-231, 48 h; for activity at 10 µM: read-out: Cell growth %, MDA-MB-231, 10 µM, 48 h, MTT; for activity at 50 µM: read-out: Cell growth %, MDA-MB-231, 50 µM, 48 h, MTT; for IC50: read-out: IC50 MDA-MB-231
# Method in brief: (§1)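 MDA-MB-231, HTB-54 and DU-145 grown in RPMI 1640, HT-29 in McCoy's 5A (10% FBS). Output is % cell growth; IC50 determined; ≥3 experiments in quadruplicate.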
# [3] = tested on: DU-145 (prostate) cancer cell line; test: MTT cell viability assay, DU-145; conditions: Homo sapiens, DU-145, 48 h; for activity at 10 µM: read-out: Cell growth %, DU-145, 10 µM, 48 h, MTT; for activity at 50 µM: read-out: Cell growth %, DU-145, 50 µM, 48 h, MTT; for IC50: read-out: IC50 DU-145
# Method in brief: as §1
# [4] = tested on: MDA-MB-231, HT-29, HTB-54 and DU-145 cancer cell lines; test: MTT cell viability assay, statements over the panel of cancer cell lines; conditions: for IC50: Homo sapiens, span over HTB-54, MDA-MB-231 and DU-145; for cell growth: in at least three of the four cancer cell lines tested
# Method in brief: as §1
# DU-145 cells [5] = test: Protective effects against H2O2-induced oxidative stress in DU-145 cells (MTT); conditions: for fold increase of cell survival: 0.0015 mg/mL, DU-145 treated with 300, 250 and 200 µM H2O2; for Increase-fold: increase-fold of cell survival
# Description: Cells were treated with the selected compounds and then oxidative damage to DU-145 cells was induced using different concentrations of H2O2 (200, 250 and 300 µM), and cell viability was assessed by the MTT method. Briefly, 2.5 × 10^4 DU-145 cells per well were added in 96-well plates. After 24 h of incubation, DMSO, 1.I, 2.I, 5.I, 7.II, 10.II, and ascorbic acid were added to each well at two different concentrations (0.0015 mg/mL and 0.0003 mg/mL) and incubated for 1 h. After that, H2O2 was added at the concentrations of 200, 250, and 300 µM, and the cells were incubated for 12 h to induce cell damage. MTT assay was used to measure cell viability. For each treatment, the mean cell viability was calculated from three independent experiments. The DMSO-treated controls were assigned with a cell viability value of 100% (Vcontrol). The results are expressed as a cell growth inhibition % caused by H2O2 and the increased fold of cell survival, as follows: • Cells without compounds, only treated with H2O2: (2) % Cell growth inhibition=Acontrol - Asample/Acontrol × 100
# • Cells treated with compounds and H2O2:
# (3) % Cell growth inhibition=Asample (compound) - Asample (compound+H2O2)/Acontrol × 100
# (4) Increase-fold of cell survival=% cell growth inhibition (H2O2)/% cell growth inhibition (compound+ H2O2)
# The standard error of the mean (SEM) was calculated in at least three independent experiments performed in quadruplicates.
# DU-145 cells [6] = test: Annexin V & Dead Cell apoptosis assay; conditions: DU-145, 10 µM, 24 h
# Description: Induction of apoptosis was assayed using Annexin V & Dead Cell assay kit and Caspase 3/7 assay kit (EMD Millipore, Darmstadt, Germany). DU-145 cells were seeded in 6-well plates at a density of 6 × 10^5 cells/well and treated either with DMSO (control) or 10 µM of compounds 1.I and 5.I and incubated for 24 h. At the end of treatment, cells were harvested and processed with appropriate staining according to the manufacturer’s protocol. For the Caspase 3/7 assay, cells were stained with 5 μL of Muse™ Caspase 3/7 working solution and incubated at 37 °C for 30 min. After incubation, […] of Muse™ Caspase 7-AAD working solution was added and the samples were incubated for another 5 min at room temperature in the dark. For Annexin V assay, cells were stained with 100 μL pf Muse™ Annexin V & Dead Cell Reagent and incubated for 20 min at room temperature in the dark prior to analysis. Samples were further analyzed on a Muse™ Cell Analyzer (Merck Millipore, Darmstadt, Germany) using Muse™ 1.4 software. Data were obtained from at least two independent experiments.
# [7] = Homo sapiens, HTB-54, 48 h, read-out: IC50 HTB-54, Lung, MTT, 48 h
# [8] = compound 0.0003 mg/mL, 200 µM H2O2, DU-145
# [9] = compound 0.0003 mg/mL, 250 µM H2O2, DU-145
# [10] = compound 0.0003 mg/mL, 300 µM H2O2, DU-145
# [11] = compound 0.0015 mg/mL, 200 µM H2O2, DU-145
# [12] = compound 0.0015 mg/mL, 250 µM H2O2, DU-145
# [13] = compound 0.0015 mg/mL, 300 µM H2O2, DU-145
Compound,"activity at 10 µM ([1]; Homo sapiens, HTB-54, 48 h)","activity at 50 µM ([1]; Homo sapiens, HTB-54, 48 h)","IC50 [1, 7]",SI [1],activity at 10 µM [2],activity at 50 µM [2],IC50 [2],activity at 10 µM [3],activity at 50 µM [3],IC50 [3],IC50 [4],cell growth [4],fold increase of cell survival (DU-145 cells [5]),Increase-fold (DU-145 cells [5]; [8]),Increase-fold (DU-145 cells [5]; [9]),Increase-fold (DU-145 cells [5]; [10]),Increase-fold (DU-145 cells [5]; [11]),Increase-fold (DU-145 cells [5]; [12]),Increase-fold (DU-145 cells [5]; [13]),increase of late/dead apoptotic cells with respect to the control (DU-145 cells [6]),also measured
"CCCNC(=[Se])NC(=O)c1ccccc1 [Compound 5.I, N-(propylcarbamoselenoyl)benzamide]",36.8 ± 8.6%,27.5 ± 6.5%,< 10 µM,>11.9,45 ± 12.5%,21.3 ± 11.2%,15.5 ± 6.3 µM,42.4 ± 4.9%,47.9 ± 3.9%,11.5 ± 3.4 µM,7.8 to 15.5 µM,below 55%,doubled cell viability; also recorded: greater two-fold increase of cell survival,1.9 ± 0.3,1.9 ± 0.4,1.7 ± 0.4,3.1 ± 0.5,2.7 ± 0.3,2.4 ± 0.4,about 25%,"IC50 ([1]; read-out: IC50 HTB-54, Lung, MTT, 48 h): 8.4 ± 3.9 µM; viable population reduced by (DU-145 cells [6]): 37%"
"CCCNC(=[Se])NC(=O)c1ccco1 [Compound 1.I, N-(propylcarbamoselenoyl)furan-2-carboxamide]",47.1 ± 14.8%,31.6 ± 8.2%,< 10 µM,>12.7,46.7 ± 5.6%,38 ± 7.8%,8.8 ± 4.8 µM,44.9 ± 4.8%,48.7 ± 3.1%,9.5 ± 2.5 µM,7.8 to 15.5 µM,below 55%,doubled cell viability; also recorded: greater two-fold increase of cell survival,2.0 ± 0.0,2.0 ± 0.7,1.8 ± 0.4,2.3 ± 0.7,2.7 ± 0.4,2.3 ± 0.3,about 25%,viable population reduced by (DU-145 cells [6]): 37%
